# Measurements: patent US6537804B1, “BCR-ABL directed compositions and uses for inhibiting Philadelphia chromesome stimulated cell growth” (Board of Regents, The University of Texas Systems, priority 1995, dated 2003)
# Experiments:
# Assay type in all cases: cell-based, human
# c-Abl = assay: Western blotting with anti-Abl monoclonal antibody 8E9 of treated SUP-B15 cells
# Description: (§1) SUP-B15 cells express p185 BCR-ABL; they were derived from a patient with Philadelphia chromosome-positive ALL. One-tenth of the cells harvested in the study shown in FIG. 13 was assayed for Bcr-Abl expression by Western blotting with the anti-Abl monoclonal antibody 8E9. […] Similarly, the Abl protein was reduced about 26% in the anti-sense treated culture compared to sense. Quantitation was done by a densitometer SI unit (Molecular Dynamics).
# Using c-Abl as an internal control, the actual reduction of p160 BCR in B15 cells by the antisense treatment is about 10 fold.
# M3.16 cells = assay: Growth of M3.16 cells, trypan blue exclusion; conditions: DMEM 10% FCS, 10 μM at day 1, half at day 5, light microscopy at day 9
# Description: FIG. 20B, M3.16 cells cultured in 10% FCS containing DMEM media with either the 3′ BCR antisense oligonucleotides (open squares) or the sense oligonucleotide (closed squares) as above. Oligonucleotides were added at day 1 at a final concentration of 10 μM and added again at day 5 at half of the initial concentration. Cell viability was determined by trypan blue dye exclusion. The data are the mean +/−SEM of a triplicate analysis.
# For this particular study, the cell number was followed up for a longer period of time (11 days) and oligonucleotides were added again at day 5 at half of the initial concentration.
# [1] = test system: p160 BCR/p185 BCR-ABL complexes; assay: Co-precipitated Bcr-Abl in anti-BCR (1256-1271) immunokinase assay of treated SUP-B15 cells; conditions: antisense compared to sense treated
# Description: (§2) SUP B15 cells were treated with anti-sense BCR oligonucleotides as in FIG. 12. Equal amounts of cells processed from sense and antisense treated cultures were harvested at day 7. Cells were analyzed for Bcr protein and Bcr/Bcr-Abl complexes by assaying with an antibody to the carboxy terminal of Bcr, as described (Liu et al., 1993). Lane 1 is an SDS gel pattern of the sense treated culture; lane 2 is the assay performed with peptide-blocked antibody. Lane 3 is the pattern from anti-sense treated culture; lane 4 is the peptide-blocked control. […] Quantitation measurements indicate that the level of Bcr protein was reduced about 10-fold by antisense treatment compared to sense, when normalized for the amount of Abl protein in the cultures.
# (§3) In this study, equal amounts of the sense and the antisense oligonucleotide treated B15 cells were analyzed.
# (§4) These antibodies detect Bcr directly but not Bcr-Abl protein. However because Bcr can complex with Bcr-Abl, this assay also detects Bcr-Abl which is co-precipitated along with Bcr.
# P185 BCR-ABL = assay: Western blotting with anti-Abl monoclonal antibody 8E9 of treated SUP-B15 cells
# Description: as §1, §3
# p160 BCR = assay: Immunokinase assay with anti-BCR (1256-1271) on oligonucleotide treated SUP-B15 cells
# Description: as §2
# The effects of the sense and antisense 3′ BCR oligonucleotides were tested on BCR expression in SUP-B15 cells, a cell line derived from a Ph^1-positive acute lymphocytic leukemia patient that expresses p185 BCR-ABL. Immunokinase assays were performed with anti-BCR (1256-1271) peptide antibody (the antibody detects Bcr proteins but not Bcr-Abl proteins) to determine the level of BCR expression in B15 cells after 7 days treatment with either the sense or antisense 3′ BCR oligonucleotides (FIG. 13, lanes 1 and 3).
# as §4
# Incubation of these immune complexes with labeled ATP causes tyrosine phosphorylation of Bcr by Bcr-Abl and autophosphorylation of Bcr-Abl (Liu et al., 1993). […] Using Abl Western blot data as an internal control for mass, the specific reduction in Bcr is estimated to be about 10-fold.
# SUP-B15 cells [2] = assay: Growth of SUP-B15 cells, trypan blue exclusion
# Description: FIG. 20A, B15 cells cultured in 20% FCS containing RPMI media with either the 3′ BCR antisense oligonucleotides (10 μM at day 1) (open squares) or the sense oligonucleotides (10 μM at day 1) (closed squares).
# The biological effects of the 3′ BCR antisense oligonucleotide treatment were tested on SUP-B15 cells. SUP-B15 cells were seeded in triplicate wells at a concentration of 1.6×10^5 cells/ml in a 200 μl volume of RPMI media supplemented with 20% FCS. Oligonucleotides were added to the cells at a final concentration of 10 μM. Cell number was monitored by trypan blue exclusion assay for 9 days. The mean cell number of the triplicates was determined each day (FIG. 20A).
# SUP-B15 cells [3] = assay: Survival of SUP-B15 cells in low serum, trypan blue exclusion; conditions: 5% FCS, 10 μM
# Description: SUP-B15 cells (2×10^6 cells) were maintained in RPMI medium containing 5% fetal calf serum. Cells will not grow under these conditions and will slowly die off since cell growth requires 20% serum. Cells were treated with the 3′ BCR anti-sense (open squares) or sense oligo (closed squares) at a concentration of 10 μM. The number of viable cells was determined by trypan blue dye exclusion. The data are expressed as the mean (+/−SEM) of three replicates.
# B15 cells were cultured in a low serum containing media [5% fetal calf serum (FCS)]. These cells normally require 20% FCS. A batch of B15 cells (2.2×10^6/ml) was cultured in RPMI containing 5% FCS. 200 μl of this suspension was seeded into each well of a 96 well culture plate. Either the antisense or sense oligonucleotides were added to the culture at a final concentration of 10 μM. The cell numbers were determined as an average of the triplicates and plotted in FIG. 14.
substance,measurement,setting,value
"5′ATCATCACCGACACATCC 3′ (phosphotriester linkages at both ends, further chemistry not given here) [3′ BCR antisense oligonucleotide]","Reduction in Abl protein, anti-sense compared to sense","c-Abl; Western blot 8E9, densitometer",about 26%
same,"Reduction of c-Abl level, antisense versus sense treated cells",c-Abl; quantitation of FIG. 12,~1.35 fold
same,Confluence compared to sense treated cells,M3.16 cells,more confluent
same,Amount of p160 BCR/p185 BCR-ABL complexes,[1],reduced
same,"Reduction in Bcr-Abl protein, anti-sense compared to sense","P185 BCR-ABL; Western blot 8E9, densitometer",35%
same,Expression of p185 BCR-ABL,P185 BCR-ABL; Western blot with anti-Abl monoclonal antibody,not significantly altered
same,"Reduction of Bcr-Abl level, antisense versus sense treated cells",P185 BCR-ABL; quantitation of FIG. 12,about 1.6 fold
same,"Level of BCR protein, antisense compared with sense treated cells",p160 BCR; 7 days treatment,much lower levels
same,Reduction of p160 BCR normalized for the amount of Abl protein (c-Abl as internal control),"p160 BCR; day 7, antisense compared to sense",about 10 fold
same,"Reduction of p160 BCR, antisense versus sense treated cells","p160 BCR; day 7, densitometer quantitation of FIG. 13 lanes 1 and 3",about 14 times
same,Reduction of the amount of Bcr by anti-sense,"p160 BCR; seven days, phosphorimager analyses",about 14 fold
same,Growth density compared to sense oligonucleotide treatment,"SUP-B15 cells [2]; RPMI 20% FCS, 10 μM, 9 days",sustained a higher growth density
same,Live cells relative to sense treated cultures,SUP-B15 cells [2]; seven days in culture,twice
same,Survival compared to sense oligonucleotide treatment,SUP-B15 cells [3],increased survival
same,Number of viable cells relative to sense-treated cells,SUP-B15 cells [3]; after five days of treatment,about twice
